Data from ChEMBL document CHEMBL1145293, “Synthesis and SAR of GlyT1 inhibitors derived from a series of N-((4-(morpholine-4-carbonyl)-1-(propylsulfonyl)piperidin-4-yl)methyl)benzamides” (Bioorg Med Chem Lett, 2006).
≈ marks a conversion by molar mass, not a printed value.

Assays:
[1] = Aqueous solubility of the compound; type: physicochemical
[2] = target: T1, Sodium- and chloride-dependent glycine transporter 2 (Homo sapiens, UniProt Q9Y345); test: Inhibition of human GlyT2
T1 sequence (Q9Y345 whole entry): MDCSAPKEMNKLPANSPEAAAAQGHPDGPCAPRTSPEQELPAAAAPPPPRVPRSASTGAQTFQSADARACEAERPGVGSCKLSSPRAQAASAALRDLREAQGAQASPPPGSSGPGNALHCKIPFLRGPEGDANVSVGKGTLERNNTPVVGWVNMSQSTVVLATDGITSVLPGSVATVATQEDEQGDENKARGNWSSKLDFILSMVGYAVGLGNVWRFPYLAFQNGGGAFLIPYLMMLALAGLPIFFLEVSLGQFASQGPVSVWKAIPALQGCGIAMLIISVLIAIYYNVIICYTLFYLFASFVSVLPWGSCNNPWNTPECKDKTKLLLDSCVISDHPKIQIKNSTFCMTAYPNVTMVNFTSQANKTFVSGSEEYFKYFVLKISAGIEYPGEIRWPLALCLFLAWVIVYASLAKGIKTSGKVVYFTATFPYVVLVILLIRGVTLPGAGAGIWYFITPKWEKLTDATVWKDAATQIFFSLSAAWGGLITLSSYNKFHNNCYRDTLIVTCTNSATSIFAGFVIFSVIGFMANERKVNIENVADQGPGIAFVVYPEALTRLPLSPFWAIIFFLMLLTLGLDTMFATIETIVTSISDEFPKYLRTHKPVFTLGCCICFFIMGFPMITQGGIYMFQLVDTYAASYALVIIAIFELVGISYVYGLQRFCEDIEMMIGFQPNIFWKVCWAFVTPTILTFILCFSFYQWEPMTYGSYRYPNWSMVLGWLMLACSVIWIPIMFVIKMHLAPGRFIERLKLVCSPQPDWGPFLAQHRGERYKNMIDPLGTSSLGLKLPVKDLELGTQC

[3] = target: Cytochrome P450 2D6 (Homo sapiens, UniProt P10635); test: Inhibition of CYP2D6; type: ADME
[4] = test system: Caco-2; test: Ratio of permeability from basolateral to apical over apical to basolateral side of Caco-2 cell expressing mouse p-glycoprotein; type: ADME, cell-based; conditions: human
[5] = test system: Caco-2; test: Ratio of permeability from basolateral to apical over apical to basolateral side of Caco-2 cell expressing human p-glycoprotein; type: ADME, cell-based
[6] = target: T2, Sodium- and chloride-dependent glycine transporter 1 (Homo sapiens, UniProt P48067); test: Inhibition of human GlyT1
T2 sequence (P48067 whole entry): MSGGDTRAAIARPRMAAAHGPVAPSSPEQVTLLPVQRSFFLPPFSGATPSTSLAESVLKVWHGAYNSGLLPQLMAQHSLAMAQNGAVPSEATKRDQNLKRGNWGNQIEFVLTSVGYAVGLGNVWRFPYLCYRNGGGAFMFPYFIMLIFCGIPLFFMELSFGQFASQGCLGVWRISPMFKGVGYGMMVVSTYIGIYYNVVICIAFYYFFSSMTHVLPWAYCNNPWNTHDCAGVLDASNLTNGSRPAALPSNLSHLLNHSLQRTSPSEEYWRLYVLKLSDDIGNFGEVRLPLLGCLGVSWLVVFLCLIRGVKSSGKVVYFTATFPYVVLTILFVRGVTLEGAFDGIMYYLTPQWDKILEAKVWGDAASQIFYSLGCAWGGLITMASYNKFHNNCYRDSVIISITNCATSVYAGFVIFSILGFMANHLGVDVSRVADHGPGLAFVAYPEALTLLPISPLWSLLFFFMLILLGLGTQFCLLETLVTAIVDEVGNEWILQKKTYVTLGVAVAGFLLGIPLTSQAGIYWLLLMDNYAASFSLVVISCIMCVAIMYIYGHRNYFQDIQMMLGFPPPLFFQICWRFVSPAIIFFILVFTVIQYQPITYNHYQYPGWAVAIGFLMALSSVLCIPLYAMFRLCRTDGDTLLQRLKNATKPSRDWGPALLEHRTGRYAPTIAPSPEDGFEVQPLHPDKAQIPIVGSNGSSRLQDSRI

[7] = Half life in rat; type: ADME, organism-based; conditions: in vivo
[8] = target: Cytochrome P450 2C9 (Homo sapiens, UniProt P11712); test: Inhibition of CYP2C9; type: ADME
[9] = Clearance in rat; type: ADME, organism-based; conditions: in vivo
[10] = Partition coefficient, log P of the compound; type: physicochemical; conditions: octanol/water
[11] = target: T3, Sodium- and chloride-dependent glycine transporter 1 (Rattus norvegicus, UniProt P28572); test: Inhibition of rat GlyT1
T3 sequence (P28572 whole entry): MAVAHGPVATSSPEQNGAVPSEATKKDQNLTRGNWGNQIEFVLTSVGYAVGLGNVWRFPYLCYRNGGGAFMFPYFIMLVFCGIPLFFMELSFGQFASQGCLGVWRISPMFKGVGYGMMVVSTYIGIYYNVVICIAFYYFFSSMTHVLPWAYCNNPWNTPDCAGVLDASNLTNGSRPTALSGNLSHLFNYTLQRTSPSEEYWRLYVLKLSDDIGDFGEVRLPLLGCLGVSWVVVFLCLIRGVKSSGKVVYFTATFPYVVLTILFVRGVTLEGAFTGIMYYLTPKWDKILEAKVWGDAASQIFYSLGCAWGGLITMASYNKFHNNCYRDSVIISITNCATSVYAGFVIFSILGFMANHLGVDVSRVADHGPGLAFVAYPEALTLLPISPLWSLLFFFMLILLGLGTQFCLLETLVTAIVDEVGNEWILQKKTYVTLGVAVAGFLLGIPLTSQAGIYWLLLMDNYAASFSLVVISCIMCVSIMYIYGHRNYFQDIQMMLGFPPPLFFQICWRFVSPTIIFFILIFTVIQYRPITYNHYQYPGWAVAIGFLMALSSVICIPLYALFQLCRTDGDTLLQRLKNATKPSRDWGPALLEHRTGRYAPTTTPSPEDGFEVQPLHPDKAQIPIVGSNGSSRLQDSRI

[12] = Apparent permeability in Caco-2 cells; type: ADME, cell-based; conditions: human

Chain of Cytochrome P450 2C9 (P11712 whole entry): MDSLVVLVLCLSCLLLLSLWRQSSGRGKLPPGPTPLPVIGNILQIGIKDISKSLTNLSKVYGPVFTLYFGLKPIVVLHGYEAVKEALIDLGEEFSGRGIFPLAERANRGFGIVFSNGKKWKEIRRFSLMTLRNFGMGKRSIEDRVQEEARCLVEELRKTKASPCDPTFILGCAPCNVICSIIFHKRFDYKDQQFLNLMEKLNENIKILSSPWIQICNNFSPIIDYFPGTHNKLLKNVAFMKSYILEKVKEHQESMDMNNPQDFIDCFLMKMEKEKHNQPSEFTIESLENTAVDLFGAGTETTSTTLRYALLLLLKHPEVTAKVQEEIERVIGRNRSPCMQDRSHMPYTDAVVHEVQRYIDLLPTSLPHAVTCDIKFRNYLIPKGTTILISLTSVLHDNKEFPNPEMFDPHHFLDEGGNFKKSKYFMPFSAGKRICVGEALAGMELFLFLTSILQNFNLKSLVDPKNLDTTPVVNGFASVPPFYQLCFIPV
Chain of Cytochrome P450 2D6 (P10635 whole entry): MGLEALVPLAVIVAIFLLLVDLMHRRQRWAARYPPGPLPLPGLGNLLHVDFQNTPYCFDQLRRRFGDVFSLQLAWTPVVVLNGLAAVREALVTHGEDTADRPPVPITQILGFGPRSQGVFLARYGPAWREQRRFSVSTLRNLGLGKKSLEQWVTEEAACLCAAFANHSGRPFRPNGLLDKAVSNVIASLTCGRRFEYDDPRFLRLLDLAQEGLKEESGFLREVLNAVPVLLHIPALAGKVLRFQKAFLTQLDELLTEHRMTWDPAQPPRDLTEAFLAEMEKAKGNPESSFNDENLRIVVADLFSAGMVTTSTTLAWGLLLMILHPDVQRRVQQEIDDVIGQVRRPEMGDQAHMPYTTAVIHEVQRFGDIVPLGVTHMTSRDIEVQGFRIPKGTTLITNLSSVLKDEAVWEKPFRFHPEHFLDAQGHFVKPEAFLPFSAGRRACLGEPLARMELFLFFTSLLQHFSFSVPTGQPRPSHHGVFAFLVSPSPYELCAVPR

Row | Compound | solubility [1] [µg/mL] | IC50 [2] [nM] | Activity [3] | Ratio [4] | Ratio [5] | IC50 [6] [nM] | half-life [7] [min] | Activity [8] | clearance [9] [mL/min/kg] | logP [10] | IC50 [11] [nM] | Papp [12] [×10⁻⁶ cm/s]
1 | CCCS(=O)(=O)N1CCC(CNC(=O)c2ccccc2Cl)(C(=O)N2CCOCC2)CC1 | 10000 (≈ 21.2 mM) | > 30000 | Not Active | 8.9 | 10.6 | 9.7 | 18 | Not Active | 18 | < 1.4 | 18.3 | > 22
2 | CCCS(=O)(=O)N1CCC(CNC(=O)c2c(F)cccc2Cl)(C(=O)N2CCOCC2)CC1 | 10000 (≈ 20.4 mM) | > 30000 | Not Active | 8.9 | 10.6 | 12.5 | 18 | Not Active | 18 | < 1.4 | 22.1 | > 22
3 | CCCS(=O)(=O)N1CCC(CNC(=O)c2c(F)ccc(Cl)c2F)(C(=O)N2CCOCC2)CC1 | 10000 (≈ 19.7 mM) | > 30000 | Not Active | 8.9 | 10.6 | 8.4 | 18 | Not Active | 18 | < 1.4 | 19.7 | > 22
4 | CCCS(=O)(=O)N1CCC(CNC(=O)c2ccc(Cl)cc2Cl)(C(=O)N2CCOCC2)CC1 | 18000 (≈ 35.5 mM) | > 30000 | Not Active | 11.4 | 17.9 | 2.4 | 22.2 | Not Active | 20.5 | 1.4 | 3.2 | 23.6
5 | CCCS(=O)(=O)N1CCC(CNC(=O)c2ccc(F)cc2Cl)(C(=O)N2CCOCC2)CC1 | 10000 (≈ 20.4 mM) | > 30000 | Not Active | 8.9 | 10.6 | 12.6 | 18 | Not Active | 18 | < 1.4 | 10.1 | > 22
6 | CCCS(=O)(=O)N1CCC(CNC(=O)c2cc(F)c(Cl)cc2Cl)(C(=O)N2CCOCC2)CC1 | 10000 (≈ 19.1 mM) | > 30000 | Not Active | 8.9 | 10.6 | 6.3 | 18 | Not Active | 18 | < 1.4 | 7.4 | > 22
